“And” between values parts separate entries of the source, which are not always exact repeats. Equal values may be shown once.
Tested on: C. elegans
Assay: C. elegans motor phenotype scoring on solid media (Punc/jerky-unc, coiled, paralyzed), wild-type young adults
Format: in vivo, Caenorhabditis elegans
Details: for atypical locomotion (number of animals) / no phene (number of animals) / paralyzed (number of animals) / any phene: mean % fraction of young adults exhibiting any phenotype (coiled, jerky-Unc or paralyzed) / coiled (number of animals): one hour; for atypical locomotion (number of animals) / no phene (number of animals) / paralyzed (number of animals) / coiled (number of animals): young adults, 20 animals per trial, single technical replicate; for any phene: mean % fraction of young adults exhibiting any phenotype (coiled, jerky-Unc or paralyzed): mean of three biological replicates; for Fraction Coiled / Fraction Jerky-Unc / Fraction No Phenotype / Fraction Parayzed: 60 min
[1] = 15 µM, N2 adult worms, Averages of 3 biological repeats
[2] = 15 µM, N2 adult worms, Bio Rep 1
[3] = 15 µM, N2 adult worms, Bio Rep 3
[4] = 15 µM, N2 adult worms, Bio rep 2
[5] = 30 µM, N2 adult worms, Averages of 3 biological repeats
[6] = 30 µM, N2 adult worms, Bio Rep 1
[7] = 30 µM, N2 adult worms, Bio Rep 3
[8] = 30 µM, N2 adult worms, Bio rep 2
[9] = 60 µM, N2 adult worms, Averages of 3 biological repeats
[10] = 60 µM, N2 adult worms, Bio Rep 1
[11] = 60 µM, N2 adult worms, Bio Rep 3
[12] = 60 µM, N2 adult worms, Bio rep 2
[13] = 120 µM, N2 adult worms, Averages of 3 biological repeats
[14] = 120 µM, N2 adult worms, Bio Rep 1
[15] = 120 µM, N2 adult worms, Bio Rep 3
[16] = 120 µM, N2 adult worms, Bio rep 2
[17] = 240 µM, N2 adult worms, Averages of 3 biological repeats
[18] = 240 µM, N2 adult worms, Bio Rep 1
[19] = 240 µM, N2 adult worms, Bio Rep 3
[20] = 240 µM, N2 adult worms, Bio rep 2
[21] = N2, 15 µM, adult worms, average of 3 biological repeats
[22] = N2, 30 µM, adult worms, average of 3 biological repeats
[23] = N2, 60 µM, adult worms, average of 3 biological repeats
[24] = N2, 120 µM, adult worms, average of 3 biological repeats
[25] = N2, 240 µM, adult worms, average of 3 biological repeats

Q: What does the source list for `O[C@@H]1CCCC[C@H]1N1CCC(c2ccccc2)CC1` (racemic) [vesamicol, reference compound]?
A: atypical locomotion (number of animals) (3.75uM): 0; no phene (number of animals) (3.75uM): 20; paralyzed (number of animals) (3.75uM): 0; any phene: mean % fraction of young adults exhibiting any phenotype (coiled, jerky-Unc or paralyzed) (3.75uM): 0%; Fraction Coiled [1]: 0.00; Fraction Jerky-Unc [1]: 0.17; Fraction No Phenotype [1]: 0.83; Fraction Parayzed [1]: 0.00; Fraction Jerky-Unc [2]: 0.2778; Fraction No Phenotype [2]: 0.72; Fraction Parayzed [2]: 0; Fraction Coiled [3]: 0.00; Fraction Jerky-Unc [3]: 0.1667; Fraction No Phenotype [3]: 0.83; Fraction Parayzed [3]: 0; Fraction Coiled [4]: 0.00; Fraction Jerky-Unc [4]: 0.05556; Fraction No Phenotype [4]: 0.94; Fraction Parayzed [4]: 0; atypical locomotion (number of animals) (15uM): 0; coiled (number of animals) (15uM): 0; no phene (number of animals) (15uM): 20; paralyzed (number of animals) (15uM): 0; any phene: mean % fraction of young adults exhibiting any phenotype (coiled, jerky-Unc or paralyzed) (15uM): 0%; Fraction Coiled [5]: 0.00; Fraction Jerky-Unc [5]: 0.41; Fraction No Phenotype [5]: 0.59; Fraction Parayzed [5]: 0.00; Fraction Coiled [6]: 0.00; Fraction Jerky-Unc [6]: 0.3889; Fraction No Phenotype [6]: 0.61; Fraction Parayzed [6]: 0; Fraction Coiled [7]: 0.00; Fraction Jerky-Unc [7]: 0.4444; Fraction No Phenotype [7]: 0.56; Fraction Parayzed [7]: 0; Fraction Coiled [8]: 0.00; Fraction Jerky-Unc [8]: 0.3889; Fraction No Phenotype [8]: 0.61; Fraction Parayzed [8]: 0; Fraction Coiled [9]: 0.0566; Fraction Jerky-Unc [9]: 0.62; Fraction No Phenotype [9]: 0.32; Fraction Parayzed [9]: 0.00; Fraction Coiled [10]: 0.0556; Fraction Jerky-Unc [10]: 0.7222; Fraction No Phenotype [10]: 0.22; Fraction Parayzed [10]: 0; Fraction Coiled [11]: 0.06; Fraction Jerky-Unc [11]: 0.5294; Fraction No Phenotype [11]: 0.41; Fraction Parayzed [11]: 0; Fraction Coiled [12]: 0.0556; Fraction Jerky-Unc [12]: 0.6111; Fraction No Phenotype [12]: 0.33; Fraction Parayzed [12]: 0; atypical locomotion (number of animals) (60uM): 0 and 1 and 3 and 5 and 2; coiled (number of animals) (60uM): 1 and 0; no phene (number of animals) (60uM): 19 and 18 and 17 and 15; paralyzed (number of animals) (60uM): 0; any phene: mean % fraction of young adults exhibiting any phenotype (coiled, jerky-Unc or paralyzed) (60uM): 11.6667%; Fraction Coiled [13]: 0.0556; Fraction Jerky-Unc [13]: 0.74; Fraction No Phenotype [13]: 0.17; Fraction Parayzed [13]: 0.037; Fraction Coiled [14]: 0.11; Fraction Jerky-Unc [14]: 0.7778; Fraction No Phenotype [14]: 0.0556; Fraction Parayzed [14]: 0.05556; Fraction Coiled [15]: 0.00; Fraction Jerky-Unc [15]: 0.7222; Fraction No Phenotype [15]: 0.28; Fraction Parayzed [15]: 0; Fraction Coiled [16]: 0.0556; Fraction Jerky-Unc [16]: 0.7222; Fraction No Phenotype [16]: 0.17; Fraction Parayzed [16]: 0.05556; Fraction Coiled [17]: 0.11; Fraction Jerky-Unc [17]: 0.80; Fraction No Phenotype [17]: 0.0741; Fraction Parayzed [17]: 0.0185; Fraction Coiled [18]: 0.11; Fraction Jerky-Unc [18]: 0.8333; Fraction No Phenotype [18]: 0.00; Fraction Parayzed [18]: 0.05556; Fraction Coiled [19]: 0.11; Fraction Jerky-Unc [19]: 0.7222; Fraction No Phenotype [19]: 0.17; Fraction Parayzed [19]: 0; Fraction Coiled [20]: 0.11; Fraction Jerky-Unc [20]: 0.8333; Fraction No Phenotype [20]: 0.0556; Fraction Parayzed [20]: 0; EC50 (Caenorhabditis elegans, 1 h): 38.6 ± 3.5 µM; Fraction Coiled [21]: 0.00; Fraction Jerky-Unc [21]: 0.17; Fraction No Phenotype [21]: 0.83; Fraction Parayzed [21]: 0.00; Fraction Coiled [22]: 0.00; Fraction Jerky-Unc [22]: 0.41; Fraction No Phenotype [22]: 0.59; Fraction Parayzed [22]: 0.00; Fraction Coiled [23]: 0.0566; Fraction Jerky-Unc [23]: 0.62; Fraction No Phenotype [23]: 0.32; Fraction Parayzed [23]: 0.00; Fraction Coiled [24]: 0.0556; Fraction Jerky-Unc [24]: 0.74; Fraction No Phenotype [24]: 0.17; Fraction Parayzed [24]: 0.037; Fraction Coiled [25]: 0.11; Fraction Jerky-Unc [25]: 0.80; Fraction No Phenotype [25]: 0.0741; Fraction Parayzed [25]: 0.0185; fold difference in C. elegans EC50, Vesamicol vs Nemacol-1 (Vesamicol EC50 higher, Nemacol-1 more potent): 5.4 fold

From paper PMC10066365, “Nemacol is a small molecule inhibitor of C. elegans vesicular acetylcholine transporter with anthelmintic potential” (Nature Communications, 2023)
